Assay results published in patent EP0097071A1, “Benzhydryl sulfinylacetamide derivatives and their therapeutical use” (LABORATOIRE L. LAFON Société anonyme dite:, priority 1982, dated 1983).
Like-named read-outs stand apart in the source and are kept apart here.

Key:
[1] = tested on: souris; assay: Traction test; type: in vivo; conditions: 0,5 h after administration, dose not stated
Description: (§1) On a résumé ci-après les résultats des essais pharmacologiques qui ont été entrepris avec les produits selon la présente addition. Dans ces essais, les produits de formule I à étudier ont été administrés par voie intrapéritonéale, en suspension dans une solution aqueuse de gomme arabique, sous un volume de 20 ml/kg chez la souris mâle et sous un volume de 5 ml/kg chez le rat mâle.
(§2) Les essais sont effectués sur des lots de 10 souris (par dose) 0,5 h après l'administration du CRL 40933.

[2] = tested on: rat; assay: Interaction with apomorphine, rat; type: in vivo; conditions: apomorphine 0,5 mg/kg s.c., dose not stated
Description: as §1
Le CRL 40933 est administré à des lots de 6 rats 0,5 h avant l'injection sous-cutanée de 0,5 mg/kg d'apomorphine.

[3] = tested on: souris; assay: Interaction with reserpine; type: in vivo; conditions: 32 mg/kg et 12'8 mg/kg i.p.
Description: as §1
Quatre heures après l'injection intrapéritonéale de 2,5 mg/kg de réserpine, des lots de 6 souris reçoivent le CRL 40933.

[4] = tested on: souris; assay: Four plates test; type: in vivo; conditions: 0,5 h after administration, dose not stated
Description: as §1, §2

[5] = tested on: souris; assay: Asphyxic anoxia (gallamine triethiodide); type: in vivo; conditions: 128 mg/kg i.p., 30 min before triiodoéthylate de gallamine 32 mg/kg i.p.
Description: as §1
Des lots de 10 souris par dose reçoivent le CRL 40933 30 min avant l'administration intrapéritonéale de 32 mg/kg de triiodoéthylate de gallamine.

[6] = Global behaviour and reactivities, mouse; type: in vivo, souris; conditions: mouse, in vivo, ip, souris, 24 h après administration, read-out: mortalité tardive
Description: as §1
(§3) Pour apprécier le comportement global et les réactivités, des lots de six animaux (souris mâles ou rats mâles) ont été observés avant administration de chaque produit, puis 15 min, 30 min, 1 h, 2 h, 3 h et 24 h après administration de chaque produit. Les résultats sont consignés dans le tableau III ci-après, […]

[7] = tested on: souris mâles; assay: Global behaviour and reactivities, mouse; type: in vivo; conditions: souris
Description: as §1, §3

[8] = tested on: souris; assay: Motility reduced by habituation to the enclosure; type: in vivo
Description: as §1
Après 18 h de séjour dans les actimètres, les souris (6 par dose, 12 témoins) reçoivent le CRL 40933. Elles sont aussitôt replacées dans leurs enceintes respectives et, 30 min plus tard, on enregistre leur motilité pendant 30 min.

[9] = tested on: souris; assay: Intergroup aggressiveness; type: in vivo; conditions: dose not stated
Description: as §1
Après avoir séjourné pendant 3 semaines dans chacune des moitiés d'une cage séparées par une cloison opaque, des groupes de 3 souris reçoivent le CRL 40933. 30 min plus tard, les deux groupes d'une même cage sont réunis par retrait de la cloison et on note le nombre de combats qui surviennent en 10 min.

[10] = tested on: souris; assay: Interaction with apomorphine, mouse; type: in vivo
Description: as §1
Des lots de 6 souris par dose reçoivent le CRL 40933 0,5 h avant l'injection sous-cutanée d'apomorphine administrée à la dose de 1 ou 16 mg/kg.

[11] = tested on: souris mâle; assay: Pentobarbital-induced sleep duration; type: in vivo; conditions: dose 8 mg/kg i.p., 0,5 h before pentobarbital
Excerpt: Les composés selon l'invention se distinguent du benzhydrylsulfinylacétamide (CRL 40476) précité par une différence d'action vis-à-vis du sommeil barbiturique. […]. Cette différence d'action qui est intéressante sur le plan thérapeutique est illustrée par le tableau IV

[12] = tested on: souris; assay: Interaction with oxotremorine; type: in vivo
Description: as §1
Le CRL 40933 est administré à des lots de 6 souris 0,5 h avant l'injection intrapéritonéale de 0,5 mg/kg d'oxotrémorine.

[13] = tested on: souris; assay: Motility reduced by hypoxic aggression (acute hypobaric anoxia); type: in vivo; conditions: 128 mg/kg i.p.
Description: as §1
Une demi-heure après avoir reçu le CRL 40933, les souris (10 par dose, 20 témoins) sont soumises à une anoxie hypobare aiguë [dépression de 600 mm Hg (soit environ 8 x 10^4 pascals) en 90 s, puis détente de 45 s], puis elles sont placées en actimètre où leur motilité est enregistrée pendant 10 min.

[14] = tested on: rats mâles; assay: Global behaviour and reactivities, rat; type: in vivo
Description: as §1, §3

[15] = tested on: souris; assay: Interaction with barbital (sleep); type: in vivo; conditions: dès la dose de 8 mg/kg i.p., barbital 220 mg/kg i.p.
Description: as §1
Une demi-heure après l'administration de CRL 40933, des lots de 10 souris reçoivent une injection intrapéritonéale de 220 mg/kg de barbital.

[16] = tested on: souris; assay: Electroshock; type: in vivo; conditions: 32 mg/kg à 128 mg/kg i.p.
Description: as §1, §2

[17] = tested on: souris; assay: Spontaneous motility (actimeter); type: in vivo
Description: as §1
Une demi-heure, après avoir reçu le CRL 40933, les souris (6 par dose, 12 témoins) sont placées en actimètre où leur motilité est enregistrée pendant 30 min.

[18] = tested on: souris; assay: Behavioural despair (forced immersion); type: in vivo; conditions: souris; 8 mg/kg, 32 mg/kg, mais surtout 128 mg/kg i.p.
Description: as §1
Une demi-heure après avoir reçu le CRL 40933, des lots de 10 souris par dose sont placés dans un espace restreint rempli d'eau sur une hauteur de 6 cm; on note la durée d'immobilité entre la 2e et la 6e minute suivant l'immersion.

[19] = tested on: souris mâle; assay: Toxicity, DL-0; type: in vivo; conditions: i.p.
Description: as §1
La toxicité a été étudiée chez la souris mâle. Les résultats relatifs à la DL-0 (dose minimale non mortelle) sont donnés dans le tableau II ci-après.

[20] = tested on: homme; assay: Clinical trials; type: in vivo
Excerpt: Les études cliniques ont porté sur les troubles de la vigilance, de l'éveil et des états confusionnels, d'une part, et sur les troubles de l'affectivité, du contact et des dépressions, d'autre part.

[21] = tested on: rats; assay: Interaction with amphetamine (stereotypies); type: in vivo; conditions: rat; amphétamine 2 mg/kg i.p.; doses used, not stated
Description: as §1
L'amphétamine (2 mg/kg)est injectée par voie intrapéritonéale à des lots de 6 rats, 30 min après l'administration de CRL 40933.

[22] = tested on: SNC; assay: Essential activity on the CNS (Tableau I and conclusions of the neuropsychopharmacological study); type: in vivo
Excerpt: Dans le tableau I ci-après, on a consigné un certain nombre de composés selon la formule I de façon nullement limitative, en mentionnant l'activité essentielle sur le SNC.
Les composés de formule I agissent tous sur le SNC. Les produits des exemples 1-3 et 7-8 sont des agents stimulants, en revanche les produits des exemples 4-6 sont des agents sédatifs.

## NC(=O)C[S+]([O-])C(c1ccccc1)c1ccc(Cl)cc1 (stereo not shown) [Exemple 7, 4-chlorobenzhydrylsulfinylacétamide]
[1]
  déficit moteur (traction): ne provoque pas de déficit moteur majeur
[2]
  stéréotypies induites par l'apomorphine: ne modifie pas
[3]
  ptôsis réserpinique: sans modifier
[3]; 4 h after réserpine 2,5 mg/kg i.p.
  hypothermie réserpinique: s'oppose très faiblement
[4]
  nombre de passages punis: n'entraine pas d'augmentation nette
[5]
  délai d'apparition des convulsions et de la mort consécutives à une anoxie asphyxique: diminue
[6]; 512 mg/kg i.p.
  mortality at 24 h: 33%
[6]; 1024 mg/kg i.p.
  mortality at 24 h: 66%
[7]; 512 mg/kg i.p.
  Observations (comportement global et réactivités): crampes abdominales, sédation et hypo-réactivité au toucher
[7]; 1024 mg/kg i.p.
  Observations (comportement global et réactivités): crampes abdominales, sédation et hypo-réactivité au toucher, respiration dépri-mée
[7]; 128 mg/kg i.p.
  Observations (comportement global et réactivités): excitation apparaissant 1,5 h après administration et durant 3 h - réactivité au toucher
[7]; 256 mg/kg i.p.
  Observations (comportement global et réactivités): crampes abdominales, respiration déprimée, puis - excitation apparaissant 1,5 h après administration
[8]; 2 mg/kg et 8 mg/kg i.p.
  reprise de l'activité chez la souris habituée à son enceinte: à peine perceptible
[8]; 32 mg/kg à 128 mg/kg i.p.
  reprise de l'activité chez la souris habituée à son enceinte: net
[9]
  agressivité intergroupes (nombre de combats): ne modifie pas nettement
[10]; 128 mg/kg i.p.
  comportement de verticalisation et stéréotypies (apomorphine): sans modifier
[10]; 128 mg/kg i.p. 0,5 h before apomorphine 16 mg/kg s.c.
  action hypothermisante de l'apomorphine: s'oppose
[11]
  Action sur la durée du sommeil induit par le pentobarbital (50 mg/kg i.p.) effet: (a)
[12]; 128 mg/kg i.p., 0,5 h before oxotrémorine 0,5 mg/kg i.p.
  effet hypothermisant de l'oxotrémorine: s'oppose faiblement
[12]; dose not stated
  signes de stimulation cholinergique périphérique dus à l'oxotrémorine: ne modifie pas
  tremblements induits par l'oxotrémorine: ne sont pas influencés
[13]
  récupération motrice après séjour bref dans une enceinte à pression réduite: amélioration nette
[14]; 16 mg/kg i.p.
  Observations (comportement global et réactivités): mydriase 1 h après administration
[14]; 64 mg/kg i.p.
  Observations (comportement global et réactivités): hypotonie musculaire pendant 3 h - respiration déprimée pendant 3 h - mydriase pendant 2 à 3 h
[15]
  durée du sommeil induit par le barbital: diminue
[16]
  effets convulsivants de l'électrochoc: s'oppose
[17]; 2 mg/kg i.p. (lowest dose used)
  motilité spontanée: diminution de motilité
[17]; 32 mg/kg et 128 mg/kg i.p.
  motilité spontanée: augmentation nette
[18]
  durée d'immobilité: diminue
[19]
  DL-O: supérieure à 256 mg/kg
[20]
  action contre l'énurésie: agissent efficacement
[20]; notamment vieillard, gélules ou comprimés de 100 à 200 mg, 1 à 3 par jour
  résultats en tant que médicaments de l'éveil: excellents résultats
[21]
  stéréotypies amphétaminiques: ne modifie pas sensiblement
[22]; in vivo
  Activité sur le SNC: stimulant
  conclusion of the neuropsychopharmacological study: main type of CNS effect: effets de type stimulant
  conclusion: effets de type antidépresseur: effets de type antidépresseur qui sont faibles
[22]; souris mâle
  conclusion: effets anticonvulsivants: effets anticonvulsivants
